pIC50: −log10 of the molar value. Like-named read-outs stand apart in the source and are kept apart here.
Columns and labels:
[1] = system: R848-induced TNFα production by human peripheral blood mononuclear cells (PBMCs); assay: R848 Induced TNFα in Human PBMC Assay; assay type: cell-based; conditions: for IC50: Homo sapiens, PBMC, 3 h, read-out: R848-induced TNFa PBMC IC50 (nM); for pIC50: human PBMC, absence of serum, 3 hours, read-out: R848-induced TNFa PBMC IC50
[2] = molecular target: human IRAK4 FL (Full Length) (Homo sapiens (Human), UniProt Q9NWZ3); assay: IRAK4 Enzymatic DELFIA Assay, Protocol A; assay type: biochemical; conditions: human IRAK4 FL, 0.6 mM ATP (KM); read-out: IRAK4 DELFIA Protocol A IC50
Chain of human IRAK4 FL (Full Length) (Q9NWZ3 whole entry): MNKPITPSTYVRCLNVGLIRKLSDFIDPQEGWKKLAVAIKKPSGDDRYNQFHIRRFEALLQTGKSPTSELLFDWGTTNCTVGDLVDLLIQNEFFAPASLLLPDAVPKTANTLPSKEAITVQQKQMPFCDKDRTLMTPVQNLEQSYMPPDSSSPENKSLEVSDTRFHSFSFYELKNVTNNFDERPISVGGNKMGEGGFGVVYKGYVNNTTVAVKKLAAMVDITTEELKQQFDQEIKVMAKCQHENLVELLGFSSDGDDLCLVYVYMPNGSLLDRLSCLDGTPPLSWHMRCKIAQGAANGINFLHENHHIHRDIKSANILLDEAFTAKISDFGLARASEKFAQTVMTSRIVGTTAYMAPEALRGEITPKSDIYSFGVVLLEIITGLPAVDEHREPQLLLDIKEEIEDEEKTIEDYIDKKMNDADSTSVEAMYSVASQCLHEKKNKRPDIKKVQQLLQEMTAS

CC[C@@H]1[C@H](N)C(=O)N[C@@H]1COc1nccc2cc(C(N)=O)c(OC)cc12 [Example 356, 1-{[(2S,3R,4S)-4-amino-3-ethyl-5-oxopyrrolidin-2-yl]methoxy}-7-methoxyisoquinoline-6-carboxamide]
IC50 [1]: 594 nM | pIC50 [2]: 6.94

COc1cc2c(OC[C@H]3NC(=O)[C@@]4(F)[C@@H]3[C@@H]4C)ccnc2cc1C(N)=O [Example 323, 4-{[(1R,2S,5S)-5-fluoro-6-methyl-4-oxo-3-azabicyclo[3.1.0]hex-2-yl]methoxy}-6-methoxyquinoline-7-carboxamide]
IC50 [1]: 30 nM | pIC50 [2]: 9.70

CC[C@@H]1CC(=O)N[C@@H]1COc1nccc2cc(C(N)=O)c(OC)c(F)c12 [Example 363, 1-{[(2S,3R)-3-ethyl-5-oxopyrrolidin-2-yl]methoxy}-8-fluoro-7-methoxyisoquinoline-6-carboxamide]
IC50 [1]: 110 nM | pIC50 [2]: 7.96

CC(C)Oc1cc2c(OC[C@H]3NC(=O)[C@@H]4C[C@H]34)nccc2cc1C(N)=O [Example 174, 1-{[(1S,2S,5R)-4-oxo-3-azabicyclo[3.1.0]hex-2-yl]methoxy}-7-(propan-2-yloxy)isoquinoline-6-carboxamide]
IC50 [1]: 126 nM | pIC50 [2]: 8.51

COc1cc2c(OC[C@@H]3C[C@H](C)C(=O)N3)nccc2cc1C(N)=O [Example 242, 7-methoxy-1-{[(2S,4S)-4-methyl-5-oxopyrrolidin-2-yl]methoxy}isoquinoline-6-carboxamide]
IC50 [1]: 7250 nM | pIC50 [2]: 6.58

CC(C)Oc1cc2c(OC[C@H]3NC(=O)C[C@@H]3C)nccc2cc1C(N)=O [Example 141, 1-{[(2S,3S)-3-methyl-5-oxopyrrolidin-2-yl]methoxy}-7-(propan-2-yloxy)isoquinoline-6-carboxamide]
IC50 [1]: 294 nM | pIC50 [2]: 7.15

COc1cc2c(OC[C@H]3NC(=O)[C@H]4C3[C@H]4F)nccc2cc1C(N)=O (stereo in doubt) [Example 334, 1-(((1R,2S,5R,6R)-6-fluoro-4-oxo-3-azabicyclo[3.1.0]hexan-2-yl)methoxy)-7-methoxyisoquinoline-6-carboxamide]
IC50 [1]: 1770 nM | pIC50 [2]: 8.38

CC[C@]1(F)C[C@@H](COc2nccc3cc(C(N)=O)c(OC(C)C)cc23)NC1=O [Example 131, 1-{[(2S,4S)-4-ethyl-4-fluoro-5-oxopyrrolidin-2-yl]methoxy}-7-(propan-2-yloxy)isoquinoline-6-carboxamide]
IC50 [1]: 29 nM | pIC50 [2]: 9.22

CC(C)Oc1cc2c(OC[C@@H]3CNC(=O)N3)nccc2cc1C(N)=O [Example 202, 1-{[(4S)-2-oxoimidazolidin-4-yl]methoxy}-7-(propan-2-yloxy)isoquinoline-6-carboxamide]
IC50 [1]: 922 nM | pIC50 [2]: 7.07

[2H]C([2H])([2H])C([2H])([2H])[C@@H]1[C@H](F)C(=O)N[C@@H]1COc1nccc2cc(C(N)=O)c(OC)cc12 [Example 344, 1-{[(2S,3S,4S)-3-(pentadeutero)ethyl-4-fluoro-5-oxopyrrolidin-2-yl]methoxy}-7-methoxyisoquinoline-6-carboxamide]
pIC50 [1]: 9.30

COc1cc2c(OC[C@H]3NC(=O)[C@]4(C)C[C@H]34)nccc2cc1C(N)=O [Example 297, 7-methoxy-1-{[(1S,2S,5R)-5-methyl-4-oxo-3-azabicyclo[3.1.0]hex-2-yl]methoxy}isoquinoline-6-carboxamide]
IC50 [1]: 7120 nM

COc1cc2c(OC[C@@H]3C[C@@H](C4(O)CCOCC4)C(=O)N3)nccc2cc1C(N)=O [Example 289, 1-{[(2S,4S)-4-(4-hydroxytetrahydro-2H-pyran-4-yl)-5-oxopyrrolidin-2-yl]methoxy}-7-methoxyisoquinoline-6-carboxamide]
IC50 [1]: 6270 nM

COc1cc2c(OC[C@@H]3C[C@@](F)(CC(F)(F)F)C(=O)N3)cccc2cc1C(N)=O [Example 240, 5-{[(2S,4R)-4-fluoro-5-oxo-4-(2,2,2-trifluoroethyl)pyrrolidin-2-yl]methoxy}-3-methoxynaphthalene-2-carboxamide]
pIC50 [1]: 7.62

COc1cc2c(OC[C@H]3NC(=O)[C@@H](F)[C@@H]3C)nccc2cc1C(N)=O [Example 203, 1-{[(2S,3R,4S)-4-fluoro-3-methyl-5-oxopyrrolidin-2-yl]methoxy}-7-methoxyisoquinoline-6-carboxamide]
IC50 [1]: 47 nM

COc1cc2c(OC[C@H]3NC(=O)[C@H]4C3[C@H]4C)nccc2cc1C(N)=O (stereo in doubt) [Example 285, 7-methoxy-1-(((1R,2S,5R,6R)-6-methyl-4-oxo-3-azabicyclo[3.1.0]hexan-2-yl)methoxy)isoquinoline-6-carboxamide]
IC50 [1]: 1060 nM

COc1cc2c(OC[C@H]3NC(=O)[C@@H]4C(CCF)C43)nccc2cc1C(N)=O (stereo in doubt) [Example 306, 1-(((1R,2S,5R,6R)-6-(2-fluoroethyl)-4-oxo-3-azabicyclo[3.1.0]hexan-2-yl)methoxy)-7-methoxyisoquinoline-6-carboxamide]
IC50 [1]: 4060 nM

CC[C@]12C[C@H]1C(=O)N[C@@H]2COc1nccc2cc(C(N)=O)c(OC)cc12 [Example 299, 1-{[(1S,2S,5R)-1-ethyl-4-oxo-3-azabicyclo[3.1.0]hex-2-yl]methoxy}-7-methoxyisoquinoline-6-carboxamide]
IC50 [1]: 49 nM

COc1cc2c(OC[C@H]3NC(=O)[C@@H](F)[C@H]3C(C)O)nccc2cc1C(N)=O (stereo partly drawn) [Example 198, 1-{[(2S,3R,4S)-4-fluoro-3-(1-hydroxyethyl)-5-oxopyrrolidin-2-yl]methoxy}-7-methoxyisoquinoline-6-carboxamide]
pIC50 [1]: 6.15

COc1cc2c(OC[C@H]3NC(=O)[C@@H]4C[C@]34C)nccc2cc1C(N)=O [Example 295, 7-methoxy-1-{[(1S,2S,5R)-1-methyl-4-oxo-3-azabicyclo[3.1.0]hex-2-yl]methoxy}isoquinoline-6-carboxamide]
IC50 [1]: 67 nM

COC[C@]1(F)C[C@@H](COc2nccc3cc(C(N)=O)c(OC)cc23)NC1=O [Example 292, 1-{[(2S,4R)-4-fluoro-4-(methoxymethyl)-5-oxopyrrolidin-2-yl]methoxy}-7-methoxyisoquinoline-6-carboxamide]
IC50 [1]: 3140 nM

CC[C@@H]1C2[C@@H](COc3nccc4cc(C(N)=O)c(OC)cc34)NC(=O)[C@@H]21 (stereo in doubt) [Example 301, 1-(((1R,2S,5R,6R)-6-ethyl-4-oxo-3-azabicyclo[3.1.0]hexan-2-yl)methoxy)-7-methoxyisoquinoline-6-carboxamide]
IC50 [1]: 4050 nM

CCOc1cc2c(OC[C@@H]3C[C@@](F)(CF)C(=O)N3)ccnc2cc1C(N)=O [Example 293, 6-ethoxy-4-{[(2S,4S)-4-fluoro-4-(fluoromethyl)-5-oxopyrrolidin-2-yl]methoxy}quinoline-7-carboxamide]
IC50 [1]: 462 nM

CCOc1cc2c(OC[C@@H]3C[C@](C)(F)C(=O)N3)ccnc2cc1C(N)=O [Example 287, 6-ethoxy-4-{[(2S,4S)-4-fluoro-4-methyl-5-oxopyrrolidin-2-yl]methoxy}quinoline-7-carboxamide]
IC50 [1]: 2300 nM

COc1cc2c(OC[C@H]3NC(=O)[C@@H]4CC[C@H]34)nccc2cc1C(N)=O [Example 308, 7-methoxy-1-{[(1S,2S,5R)-4-oxo-3-azabicyclo[3.2.0]hept-2-yl]methoxy}isoquinoline-6-carboxamide]
IC50 [1]: 134 nM

COc1cc2c(OC[C@@H]3C[C@@](F)(C4CCOCC4)C(=O)N3)nccc2cc1C(N)=O [Example 284, 1-{[(2S,4R)-4-fluoro-5-oxo-4-(tetrahydro-2H-pyran-4-yl)pyrrolidin-2-yl]methoxy}-7-methoxyisoquinoline-6-carboxamide]
IC50 [1]: 320 nM

CC[C@@H]1[C@H](F)C(=O)NC1(O)COc1nccc2cc(C(N)=O)c(OC)cc12 (stereo partly drawn) [Example 197, 1-{[(3S,4S)-3-ethyl-4-fluoro-2-hydroxy-5-oxopyrrolidin-2-yl]methoxy}-7-methoxyisoquinoline-6-carboxamide]
pIC50 [1]: 7.15

COc1cc2c(OC[C@@H]3NC(=O)[C@H](F)[C@@H]3C)nccc2cc1C(N)=O [Example 288, 1-{[(2R,3R,4R)-4-fluoro-3-methyl-5-oxopyrrolidin-2-yl]methoxy}-7-methoxyisoquinoline-6-carboxamide]
IC50 [1]: 1810 nM

COc1cc2c(OC[C@H]3NC(=O)C[C@H]3C3CC3)nccc2cc1C(N)=O [Example 305, 1-{[(2S,3S)-3-cyclopropyl-5-oxopyrrolidin-2-yl]methoxy}-7-methoxyisoquinoline-6-carboxamide]
IC50 [1]: 57 nM

COc1cc2c(OC[C@@H]3NC(=O)C[C@@H]3C)nccc2cc1C(N)=O [Example 277, 7-methoxy-1-{[(2R,3S)-3-methyl-5-oxopyrrolidin-2-yl]methoxy}isoquinoline-6-carboxamide]
IC50 [1]: 4420 nM

CC[C@@H]1[C@H]2C(=O)N[C@H](COc3nccc4cc(C(N)=O)c(OC)cc34)[C@@H]12 [Example 300, 1-{[(1S,2S,5R)-6-ethyl-4-oxo-3-azabicyclo[3.1.0]hex-2-yl]methoxy}-7-methoxyisoquinoline-6-carboxamide]
IC50 [1]: 931 nM

COc1cc2c(OC[C@@H]3C[C@@H](C4CCOCC4)C(=O)N3)nccc2cc1C(N)=O [Example 286, 7-methoxy-1-{[(2S,4S)-5-oxo-4-(tetrahydro-2H-pyran-4-yl)pyrrolidin-2-yl]methoxy}isoquinoline-6-carboxamide]
IC50 [1]: 7020 nM

CC[C@@H]1[C@@H](COc2nccc3cc(C(N)=O)c(OC)cc23)NC(=O)[C@@H]1F [Example 346, 1-{[(2S,3R,4R)-3-ethyl-4-fluoro-5-oxopyrrolidin-2-yl]methoxy}-7-methoxyisoquinoline-6-carboxamide]
pIC50 [1]: 6.82

CCOc1cc2c(OC[C@@H]3C[C@@](F)(CF)C(=O)N3)nccc2cc1C(N)=O [Example 294, 7-ethoxy-1-{[(2S,4S)-4-fluoro-4-(fluoromethyl)-5-oxopyrrolidin-2-yl]methoxy}isoquinoline-6-carboxamide]
IC50 [1]: 24 nM

Reference: US10329302B2, “Bicyclic-fused heteroaryl or aryl compounds” (Pfizer Inc., priority 2014, dated 2019)
